{
  "source": "patent US20120059029A1",
  "about": "(Elan Pharmaceuticals, Inc., priority 2010, published 2012)",
  "type_in_all_cases": "cell-based",
  "key": {"[1]": {"biological_target": "T1, α4β1 (Homo sapiens, UniProt P05556+P13612)", "T1 construct": "Jurkat™ lymphoma T cells express high levels of α4β1 integrin; endogenous in cells; host or cells: Jurkat cells", "T1 sequence (P13612 34-1032)": "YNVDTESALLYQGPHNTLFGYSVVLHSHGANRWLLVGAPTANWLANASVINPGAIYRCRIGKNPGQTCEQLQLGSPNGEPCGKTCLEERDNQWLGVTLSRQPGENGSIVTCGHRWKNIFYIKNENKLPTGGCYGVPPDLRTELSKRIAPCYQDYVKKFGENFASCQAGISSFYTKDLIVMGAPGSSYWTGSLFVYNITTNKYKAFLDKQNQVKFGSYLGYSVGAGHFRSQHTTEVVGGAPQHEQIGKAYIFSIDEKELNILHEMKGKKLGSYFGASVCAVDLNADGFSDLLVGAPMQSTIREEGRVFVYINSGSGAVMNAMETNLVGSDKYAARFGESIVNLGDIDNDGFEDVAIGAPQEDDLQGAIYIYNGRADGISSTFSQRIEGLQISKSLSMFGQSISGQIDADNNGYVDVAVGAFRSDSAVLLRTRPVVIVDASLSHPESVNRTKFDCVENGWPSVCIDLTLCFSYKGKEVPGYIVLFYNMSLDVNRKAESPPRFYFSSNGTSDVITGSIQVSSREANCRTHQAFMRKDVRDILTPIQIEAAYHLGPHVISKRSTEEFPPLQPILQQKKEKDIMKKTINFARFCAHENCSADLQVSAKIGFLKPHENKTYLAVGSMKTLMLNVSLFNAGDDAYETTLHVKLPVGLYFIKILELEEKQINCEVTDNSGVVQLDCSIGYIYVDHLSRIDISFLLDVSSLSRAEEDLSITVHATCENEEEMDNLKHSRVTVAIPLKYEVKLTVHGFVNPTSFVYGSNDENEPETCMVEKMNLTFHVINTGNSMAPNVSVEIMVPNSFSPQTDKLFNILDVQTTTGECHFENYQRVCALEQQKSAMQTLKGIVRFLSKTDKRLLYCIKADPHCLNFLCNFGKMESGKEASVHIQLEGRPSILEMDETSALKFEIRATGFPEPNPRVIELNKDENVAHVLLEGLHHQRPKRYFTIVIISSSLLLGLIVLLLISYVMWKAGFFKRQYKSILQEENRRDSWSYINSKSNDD", "T1 sequence (P05556 21-798)": "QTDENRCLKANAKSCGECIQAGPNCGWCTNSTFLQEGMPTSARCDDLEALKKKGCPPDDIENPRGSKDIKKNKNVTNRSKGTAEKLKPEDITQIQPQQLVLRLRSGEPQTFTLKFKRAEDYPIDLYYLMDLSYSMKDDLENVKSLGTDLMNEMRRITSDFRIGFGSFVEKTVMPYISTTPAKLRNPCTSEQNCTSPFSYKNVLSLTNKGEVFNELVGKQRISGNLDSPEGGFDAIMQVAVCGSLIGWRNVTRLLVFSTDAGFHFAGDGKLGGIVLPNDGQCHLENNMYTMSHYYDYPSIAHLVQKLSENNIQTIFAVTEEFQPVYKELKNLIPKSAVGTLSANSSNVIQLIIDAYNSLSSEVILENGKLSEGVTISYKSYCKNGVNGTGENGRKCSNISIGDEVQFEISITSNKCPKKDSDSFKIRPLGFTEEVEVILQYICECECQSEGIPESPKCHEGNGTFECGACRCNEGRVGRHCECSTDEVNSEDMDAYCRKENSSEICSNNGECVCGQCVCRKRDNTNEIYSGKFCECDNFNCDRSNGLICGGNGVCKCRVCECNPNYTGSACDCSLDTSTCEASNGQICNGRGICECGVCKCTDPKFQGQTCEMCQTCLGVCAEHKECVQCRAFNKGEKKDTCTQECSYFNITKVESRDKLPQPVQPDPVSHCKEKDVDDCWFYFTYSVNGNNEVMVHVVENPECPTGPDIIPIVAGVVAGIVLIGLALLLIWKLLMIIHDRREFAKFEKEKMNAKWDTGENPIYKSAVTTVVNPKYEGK", "assay": "α4β1-dependent Jurkat adhesion to rs-hu-VCAM-1", "settings": "read-out: EC50, adhesion of Jurkat cells to human VCAM-1", "excerpt": "Jurkat™ lymphoma T cells express high levels of α4β1 integrin and strongly adhere to VCAM-1 in an α4 integrin-dependent fashion."}, "[2]": {"biological_target": "T1, α4β1", "assay": "α4β1-dependent Jurkat cell adhesion to human fibronectin", "settings": "TS2/16-activated α4β1, anti-α5 antibody present; read-out: EC50, Jurkat adhesion to FN", "method": "Jurkat™ cells adhere to fibronectin (FN) in an […] fashion.\n5 μg/mL of an inhibitory antibody against α5 integrin (BD Pharmingen, Franklin Lakes, N.J.) is added to the buffer to prevent α5-dependent adhesion to FN."}, "[3]": {"biological_target": "T2, activated α4β1 on Jurkat cells (Homo sapiens, UniProt P05556+P13612)", "T2 construct": "Jurkat™ lymphoma T cells express high levels of α4β1 integrin; endogenous in cells; host or cells: Jurkat cells", "T2 sequence (P13612 34-1032)": "as the sequence (P13612 34-1032) above", "T2 sequence (P05556 21-798)": "as the sequence (P05556 21-798) above", "assay": "α4β1-FN capture assay in human serum (Jurkat cells, FACS)", "settings": "50% human serum", "method": "The α4β1 receptors on Jurkat™ cell surfaces can capture, in solution, the endogenous FN present in serum.\nAn equal volume of assay buffer containing 50% human serum, the antibody 15/7 (2×, 20 μg/ml) and MnCl2 (2×, 3 mM) was then added to each well. These reagents served as α4 integrin activating agents, allowing the receptor to capture FN from the serum. The plate was then incubated for another 30 minutes at RT."}},
  "data": [
    {"smiles": "CC1(C)SCN(S(=O)(=O)c2cccnc2)[C@@H]1C(=O)N[C@@H](Cc1ccc(-n2c(=O)[nH]c3cccnc32)cc1)C(=O)O", "values": [
      {"measurement": "EC50", "setting": "[1]", "result": 11.6, "unit": "nM"},
      {"measurement": "EC50", "setting": "[2]", "result": 0.1, "unit": "nM"},
      {"measurement": "fold less potent than Formula (I), FN capture", "setting": "[3]", "result": 2.6, "unit": "fold"}
    ]}
  ]
}
